Key:
[1] = system: Phe425Gly(Shaker); details: Gly10Val(AgTx2)–Phe425Gly(Shaker) pair; ref Ranganathan et al., 1996; cited from earlier work
Excerpt: (§1) From analyzing mutants of AgTx2 and Shaker, MacKinnon and Ranganathan derived a coupling energy of >3 kT for the Gly10Val(AgTx2)–Phe425Gly(Shaker) pair and ∼1.5 kT for the Gly10Val(AgTx2)–Thr449Cys(Shaker) pair ([Ranganathan et al., 1996]). Phe425 and Thr449 in Shaker map onto Gln353 and Val377 in paddle chimera (Figure 2B).

[2] = system: Thr449Cys(Shaker); details: Gly10Val(AgTx2)–Thr449Cys(Shaker) pair; ref Ranganathan et al., 1996; cited from earlier work
Excerpt: as §1

[3] = system: Tyr445Phe(Shaker); details: ref Ranganathan et al., 1996, cited from earlier work
Excerpt: Another case worth highlighting is the coupling energy, ∼1.5 kT, between the Lys27Met(AgTx2)–Tyr445Phe(Shaker) pair. Tyr445 in Shaker maps to Tyr373 in paddle chimera (Figure 2B; [Ranganathan et al., 1996]). Since mutation of Tyr to Phe incurs only a loss of the hydroxyl group, one likely interpretation of this would have been that Lys27 contacts the hydroxyl group of Tyr445. Intriguingly, Lys27 only contacts the backbone carbonyl oxygen of Tyr445, a point farthest from the hydroxyl group (Figure 10B). However, since this is a tightly packed part of the protein structure with the hydroxyl grou ...

[4] = molecular target: T1, Kv2.1 paddle–Kv1.2 chimera channel (paddle chimera) (Rattus norvegicus, UniProt P63142, DEL270-295/F267Y/F302L/I268V/INS296[…]/L298I/N207Q/V299M/V301I); assay: CTX inhibition of paddle chimera in planar lipid bilayer, dose-response fitted for Kd; assay type: biochemical; details: CsCl vs KCl on both sides; planar bilayer of 20 mg/ml DPhPC; holding −110 mV, pulsed to +110 mV; n = 2–4
T1 construct: made in house; host or cells: Pichia pastoris
T1 sequence (P63142 with tags, fused parts or gaps with the stated changes): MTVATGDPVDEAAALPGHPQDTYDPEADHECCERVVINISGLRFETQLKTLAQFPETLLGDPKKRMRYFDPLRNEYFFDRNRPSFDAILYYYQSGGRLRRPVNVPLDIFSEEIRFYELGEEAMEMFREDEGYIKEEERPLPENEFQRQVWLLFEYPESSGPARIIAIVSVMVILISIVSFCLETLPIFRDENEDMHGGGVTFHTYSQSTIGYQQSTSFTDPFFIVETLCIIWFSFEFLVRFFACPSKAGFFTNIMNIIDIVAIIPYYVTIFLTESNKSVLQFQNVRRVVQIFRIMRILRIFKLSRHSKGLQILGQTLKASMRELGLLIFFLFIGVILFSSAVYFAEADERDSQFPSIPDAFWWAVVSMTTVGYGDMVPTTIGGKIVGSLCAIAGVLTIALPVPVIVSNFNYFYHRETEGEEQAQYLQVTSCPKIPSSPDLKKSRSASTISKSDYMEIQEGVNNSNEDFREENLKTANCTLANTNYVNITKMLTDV
T1 sequence (P62483 36-367 partner limits assumed): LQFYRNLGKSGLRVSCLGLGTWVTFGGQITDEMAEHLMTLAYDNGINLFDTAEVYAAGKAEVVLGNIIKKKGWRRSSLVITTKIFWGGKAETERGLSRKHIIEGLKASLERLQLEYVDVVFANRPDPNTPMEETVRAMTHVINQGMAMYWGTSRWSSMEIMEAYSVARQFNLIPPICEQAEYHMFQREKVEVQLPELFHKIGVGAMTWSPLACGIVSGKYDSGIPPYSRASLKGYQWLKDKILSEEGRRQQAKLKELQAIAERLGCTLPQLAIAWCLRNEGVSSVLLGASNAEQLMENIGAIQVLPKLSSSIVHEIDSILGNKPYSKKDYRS
Excerpt: Figure 8. Effects of Lys27Met mutation of CTX and Cs^+ separately on toxin-channel interactions. (A) CTX inhibition. The fraction of unblocked current (I/Imax, mean ± SEM or range of mean; n = 2–4) is graphed as a function of CTX concentration (in nM) and fit to the equation I/Imax = 0.1 + 0.9 × (1 + [CTX]/Kd)^−1. Voltage pulses: holding −110 mV, depolarized to +110 mV, followed by a step back to −110 mV. Paddle chimera–wild-type CTX with KCl on both sides is shown in red, paddle chimera–wild-type CTX with CsCl on both sides is shown in blue and paddle chimera–Lys27Met CTX with KCl on both sides is shown in black. The modified equation accounts for approximately 10% current that is due largely to the channels facing the other side and are not blocked by toxin. (B) The pore domains from two diagonal subunits of paddle chimera (molecule A) in the Lys27MetCTX–paddle chimera complex are shown in green α carbon trace and a toxin-omit weighted 2Fo − Fc electron density map is shown in wire mesh at 1σ contour level. […]
The membranes were held at −110 mV and repeatedly pulsed to +110 mV test voltage. CTX inhibition data measured with different concentrations of CTX or Lys27Met mutant of CTX were fit to the equation: I/Imax=0.1+0.9×(1+[CTX]/Kd)^−1. […]

[5] = molecular target: paddle chimera; details: planar lipid bilayers; ref Tao and MacKinnon, 2008; read-out: Kd (inhibition of paddle chimera); cited from earlier work
[6] = system: BK channel; details: 1988, cited from earlier work
Excerpt: Charybdotoxin (CTX; Figure 1B), a pore-blocking toxin for K^+ channels, is a 37-residue peptide isolated from the venom of the scorpion Leiurus quinquestriatus ([Miller et al., 1985]).

[7] = system: Shaker K+ channel; details: cited from earlier work
Excerpt: In studies with the BK channel, [MacKinnon and Miller (1988)] first observed that permeant ions coming through the channel from the intracellular side enhance the dissociation of a toxin bound to its receptor on the extracellular side.

[8] = molecular target: Kv2.1 paddle–Kv1.2 chimera channel in complex with the rat β2-core subunit (rat) (UniProt P63142); assay: planar lipid bilayer electrophysiology (inhibition of channel current)

Chain of charybdotoxin, wild type (P13487 23-59): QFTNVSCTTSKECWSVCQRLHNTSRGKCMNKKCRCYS

Substance: Gly10Val(AgTx2): Gly10Val mutant of AgTx2 (Ranganathan et al., 1996)
- coupling energy [1]: > 3 kT
- coupling energy [2]: ~1.5 kT

Substance: Lys27Met(AgTx2): Lys27Met mutant of AgTx2 (Ranganathan et al., 1996)
- K+ dependence of the interaction between the two residues ([3]; Lys27 (AgTx2) and Tyr445 (Shaker)): dependent on the K^+ concentration
- coupling energy ([3]; Lys27Met(AgTx2)–Tyr445Phe(Shaker) pair): ~1.5 kT

Substance: charybdotoxin [CTX]
- reduction in affinity in the presence of Cs+ compared to K+ [4]: ~10 fold
- Kd [5]: ~20 nM
- channel states competent for toxin binding ([6]; ref Anderson et al.): both the open and closed states of the channel are competent for toxin binding
- role of electrostatic interactions in affinity ([6]; ref Anderson et al.): electrostatic interactions play an important role in enhancing the toxin’s affinity
- voltage dependence of affinity ([6]; results from trans-enhanced dissociation by permeant ions entering from the intracellular side, ref MacKinnon and Miller): voltage dependent
- trans-enhanced dissociation effect of permeant ions on CTX block ([7]; ref Goldstein and Miller, 1993): subsequently confirmed for Shaker as well

Substance: charybdotoxin, wild type (from UniProt P13487 23-59) (peptide)
- fold reduction of affinity in Cs+ against K+ [8]: 10 fold

Substance: mutation of Lys27 to Arginine: conservative mutation of Lys27 to Arginine, literature CTX mutant (Goldstein et al., 1994)
- destabilization of the toxin-channel complex ([7]; conservative mutation of Lys27 to Arginine, Shaker, ref Goldstein et al., 1994): ~1000 fold

Source: publication PMC3660741, “Structure of a pore-blocking toxin in complex with a eukaryotic voltage-dependent K^+ channel” (eLife, 2013)
